Where “and” joins values, the source holds several entries; their conditions need not be identical. Equal entries are not always repeated. Where two headings read alike, the source gives them in different places.
Tests used:
[1] = tested on: THP-1 human monocyte cell line; type: cell-based; details: for Number of genes significantly modulated by Copaxone relative to mannitol: FDR-adjusted p<0.05
Description: Prior to treatment cells were passed and plated in a 6-well plate at a concentration of 1.0×10^6 cells/mL. Cells were allowed to recover for four hours after passage (prior to treatment). […] Each sample was analyzed in six replicates. Cells were treated for 6, 12, and 24 hours. Following treatment time cells were lysed using a Qiagen® based lysis kit. Prior to RNA isolation samples were randomized in order to avoid batch effect. Total RNA was isolated using Qiagen® RNeasy kit. RNA quality was assessed by determining the absorbance ratio 260/280 nm as well as electrophoresis bioanalyzer with 260/280 ratio of 1.9-2.1 and RIN of above 9 were deemed acceptable. Gene expression was measured using Affymetrix® U133 plus 2.0 format. Sample processing was executed according to established manufacturer protocols. The scheme in (FIG. 2) illustrates the general experimental outline.
RNA from THP-1 cells was extracted and expression profiled across the entire genome using the Affymetrix Human Genome U133 Plus 2.0 chip, interrogating a total of over 47,000 transcripts. Four batches of Copaxone® and one batch of Probioglat were comparatively tested in six biological replicates each. Key identified genes were independently evaluated for level of gene expression by quantitative Real-Time PCR of samples collected in the same experiments.
mRNA expression levels were compared between GA and control (mannitol) tested with 6 sample replicates for each of 4 batches of GA and for mannitol, using LIMMA (Sim et al., Nat. Biotechnol. 2011) (Methods). […] We chose 6h for initial downstream analysis since this timepoint reflects the greatest impact of treatment. […] Rather, this decrease in number of genes affected from early to later timepoints represents an attribute of the response of the cells to the drug.
To identify differences between branded GA and differently manufactured glatiramoids, differential gene expression analysis was performed to compare directly between profiles induced by branded GA and by the purported generic glatiramoid, Probioglat. The standard R LIMMA bioconductor package was utilized to measure differentially expressed probesets across the entire microarray. To compare GA and Probioglat, comparisons were corrected to compare each treatment relative to mannitol control (i.e., [GA vs mannitol] was compared via LIMMA to [Probioglat vs mannitol]). Probesets were filtered by calls of presence on the chip for the relevant samples in the comparison (to be considered present at a given timepoint, a probeset was required to have on average a call of present or marginal across the relevant samples at that timepoint). Probesets were mapped to genes using the annotation available for the U133 Plus 2.0 chip from Affymetrix. FDR adjusted p values reported for genes represent the lowest FDR adjusted p value for present probesets for that gene.

[2] = cited from earlier work
[3] = 6 hr, FDR p < 1e−5, |FC| >= 1.3
[4] = 6 hr, FDR p < 1e−5, |FC| >= 1.5
[5] = 6 hr, nominal p < 0.05, vs mannitol
[6] = 12 hr, FDR p < 1e−5, |FC| >= 1.3
[7] = 12 hr, FDR p < 1e−5, |FC| >= 1.5
[8] = 24 hr, FDR p < 1e−5, |FC| >= 1.3
[9] = 24 hr, FDR p < 1e−5, |FC| >= 1.5

Q: Which “raw.FC 202434_s_at CYP1B1” value [1] does the source give for glatiramer acetate [Copaxone®] here?
A: 2.203

Q: What about the “raw.FC 202435_s_at CYP1B1” value [1] of the same substance?
A: 1.96

Q: And the “raw.FC 202436_s_at CYP1B1” value [1]?
A: 2.027

Q: And the “raw.FC 202437_s_at CYP1B1” value [1]?
A: 1.809

Q: And the “IL1RN fold change (FC), all present probesets” value ([1]; 6h, GA vs mannitol, listed as GA)?
A: 1.43 and 1.35 and 1.26

Q: What about the “Number of genes significantly modulated by Copaxone relative to mannitol” value ([1]; 6 hour) of the same substance?
A: 6,890

Q: And the “IL10 fold change (FC)” value ([1]; 6 hour, GA vs mannitol)?
A: 1.52

Q: And the “Number of genes Down-regulated by GA” value ([1]; 6 hr, FDR p < 0.05)?
A: 4066

Q: And the “Number of genes Up-regulated by GA” value ([1]; 6 hr, FDR p < 0.05)?
A: 2824

Q: And the “Number of genes Down-regulated by GA” value [1, 3]?
A: 508

Q: And the “Number of genes Up-regulated by GA” value [1, 3]?
A: 557

Q: What about the “Number of genes Down-regulated by GA” value [1, 4] of the same substance?
A: 119

Q: And the “Number of genes Up-regulated by GA” value [1, 4]?
A: 257

Q: What about the “Number of genes Down-regulated by GA” value [1, 5] of the same substance?
A: 4909

Q: And the “Number of genes Up-regulated by GA” value [1, 5]?
A: 3511

Q: And the “Number of genes significantly modulated by Copaxone relative to mannitol” value ([1]; 12 hours)?
A: 3,118

Q: What about the “Number of genes Down-regulated by GA” value ([1]; 12 hr, FDR p < 0.05) of the same substance?
A: 1810

Q: And the “Number of genes Up-regulated by GA” value ([1]; 12 hr, FDR p < 0.05)?
A: 1308

Q: And the “Number of genes Down-regulated by GA” value [1, 6]?
A: 50

Q: What about the “Number of genes Up-regulated by GA” value [1, 6] of the same substance?
A: 210

Q: What about the “Number of genes Down-regulated by GA” value [1, 7] of the same substance?
A: 10

Q: What about the “Number of genes Up-regulated by GA” value [1, 7] of the same substance?
A: 68

Q: What about the “Number of genes Down-regulated by GA” value ([1]; 12 hr, nominal p < 0.05) of the same substance?
A: 3430

Q: What about the “Number of genes Up-regulated by GA” value ([1]; 12 hr, nominal p < 0.05) of the same substance?
A: 2377

Q: What about the “Number of genes significantly modulated by Copaxone relative to mannitol” value ([1]; 24 hours) of the same substance?
A: 1,791

Q: And the “Number of genes Down-regulated by GA” value ([1]; 24 hr, FDR p < 0.05)?
A: 1185

Q: What about the “Number of genes Up-regulated by GA” value ([1]; 24 hr, FDR p < 0.05) of the same substance?
A: 606

Q: What about the “Number of genes Down-regulated by GA” value [1, 8] of the same substance?
A: 6

Q: And the “Number of genes Up-regulated by GA” value [1, 8]?
A: 57

Q: What about the “Number of genes Down-regulated by GA” value [1, 9] of the same substance?
A: 0

Q: What about the “Number of genes Up-regulated by GA” value [1, 9] of the same substance?
A: 15

Q: What about the “Number of genes Down-regulated by GA” value ([1]; 24 hr, nominal p < 0.05) of the same substance?
A: 3724

Q: What about the “Number of genes Up-regulated by GA” value ([1]; 24 hr, nominal p < 0.05) of the same substance?
A: 1410

Q: What about the “CCL2 expression relative to mannitol control” value ([1]; THP-1, 6 hours) of the same substance?
A: decreased

Q: And the “CD14 expression versus mannitol control” value ([1]; THP-1, 6 hours)?
A: not modulated

Q: And the “CD14 201743_at Copaxone Expression Value Range Maximum” value ([1]; THP-1, all Copaxone samples)?
A: 9.69

Q: What about the “CD14 201743_at Copaxone Expression Value Range Minimum” value ([1]; THP-1, all Copaxone samples) of the same substance?
A: 9.32

Q: And the “CISH 223377_x_at Copaxone Expression Value Range Maximum” value ([1]; THP-1, all Copaxone samples)?
A: 9.11

Q: And the “CISH 223377_x_at Copaxone Expression Value Range Minimum” value ([1]; THP-1, all Copaxone samples)?
A: 8.86

Q: What about the “CISH 223961_s_at Copaxone Expression Value Range Maximum” value ([1]; THP-1, all Copaxone samples) of the same substance?
A: 7.69

Q: What about the “CISH 223961_s_at Copaxone Expression Value Range Minimum” value ([1]; THP-1, all Copaxone samples) of the same substance?
A: 7.24

Q: And the “ICAM1 202637_s_at Copaxone Expression Value Range Maximum” value ([1]; THP-1, all Copaxone samples)?
A: 8.06

Q: And the “ICAM1 202637_s_at Copaxone Expression Value Range Minimum” value ([1]; THP-1, all Copaxone samples)?
A: 7.44

Q: And the “ICAM1 202638_s_at Copaxone Expression Value Range Maximum” value ([1]; THP-1, all Copaxone samples)?
A: 7.30

Q: And the “ICAM1 202638_s_at Copaxone Expression Value Range Minimum” value ([1]; THP-1, all Copaxone samples)?
A: 6.51

Q: What about the “MMP9 203936_s_at Copaxone Expression Value Range Maximum” value ([1]; THP-1, all Copaxone samples) of the same substance?
A: 9.97

Q: And the “MMP9 203936_s_at Copaxone Expression Value Range Minimum” value ([1]; THP-1, all Copaxone samples)?
A: 9.53

Q: And the “Adverse events leading to discontinuation” value ([2]; GATE study arm)?
A: 5

Q: And the “Effect on annualized relapse rate (ARR)” value ([2]; GATE study, Copaxone arm (357) vs Placebo (84))?
A: no effect in reducing ARR

— patent US20170003277A1 (priority 2015, published 2017)
